Data taken from article PMC6395927, “Rufomycin Targets ClpC1 Proteolysis in Mycobacterium tuberculosis and M. abscessus” (Antimicrobial Agents and Chemotherapy, 2019).
pIC50: −log10 of the molar value. ≈ marks a conversion by molar mass, not a printed value. Read-outs that look alike come from different tables or passages of the source. Numbered stars: 1 amine (or outer) side, 2 acyl side, 3 side chain; on linkers, the order of the positions; unused ones are H or OH. Bridge positions count the residues as written; N and C are the ends. Square brackets hold non-standard residues; d marks the D form. Peptide text beside a SMILES is read from it. * marks the point of attachment. ξ: configuration not given here. NMeTrp(4-OMe) = CN[CH](Cc1c[nH]c2cccc(OC)c12)C(=O)O; X1 = O=C(C(N[*:1])C(O)c1ccccc1)[*:2]; NMeI = CC[CH](C)[CH](NC)C(=O)O; ξNMe2Val = CC(C)C(C(=O)*)N(C)C; NMeT = CN[CH](C(=O)O)[CH](C)O; NMeL = CN[CH](CC(C)C)C(=O)O; NMeV = CN[CH](C(=O)O)C(C)C

How the values were obtained:
M. chelonae (ATCC 35752) = test: microbe, parasite or virus in culture; type: cell-based, Mycobacterium chelonae; details: Mycobacteroides chelonae, ATCC35752
M. bovis (ATCC 35734) = test: microbe, parasite or virus in culture; type: cell-based; details: Mycobacterium tuberculosis variant bovis, ATCC35734
[1] = system: M. abscessus (ATCC 19977); test: microbe, parasite or virus in culture; type: cell-based, Mycobacterium abscessus; details: Mycobacteroides abscessus
M. marinum (ATCC 927) = test: microbe, parasite or virus in culture; type: cell-based; details: Mycobacterium marinum, ATCC927
M. avium (ATCC 15769) = test: microbe, parasite or virus in culture; type: cell-based; details: Mycobacterium avium, ATCC15769
[2] = system: M. smegmatis (ATCC 700084); test: microbe, parasite or virus in culture; type: cell-based; details: Mycolicibacterium smegmatis, ATCC700084
Vero cell (ATCC CRL-81) = test: cells; type: cell-based; details: Chlorocebus sabaeus, 72 h
[3] = system: Staphylococcus aureus (ATCC 29213); test: MIC against nonmycobacteria (OD570); type: cell-based; details: ATCC29213, S. aureus
Excerpt: (§1) Standard compounds used were ampicillin (AMP) and gentamicin (GEN). […] Amphotericin B (AmphB) and ketoconazole (KETO) were used as standard compounds.

[4] = system: Candida albicans (ATCC 10231); test: MIC against nonmycobacteria (OD570); type: cell-based; details: ATCC10231, C. albicans
Excerpt: as §1

[5] = system: Escherichia coli (ATCC 25922); test: MIC against nonmycobacteria (OD570); type: cell-based; details: ATCC25922, E. coli
Excerpt: as §1

M. kansasii (ATCC 12478) = test: microbe, parasite or virus in culture; type: cell-based; details: Mycobacterium kansasii, ATCC12478
[6] = system: M. tuberculosis 5 global clade representatives; test: microbe, parasite or virus in culture; type: cell-based; details: Mycobacterium tuberculosis, read-out: MICs
[7] = system: J774A.1 macrophage (ATCC TIB-67); test: Cytotoxicity in mammalian cells (resazurin); type: cell-based, murine; details: Mus musculus, J774.A1; J774, 72 h
[8] = system: M. tuberculosis strain H37Rv (ATCC 27294); test: microbe, parasite or virus in culture; type: cell-based, Mycobacterium tuberculosis; details: Mycobacterium tuberculosis
ClpC1/P1/P2 complex = ClpC1/P1/P2 complex (Mycobacterium tuberculosis, UniProt P9WPC9); type: biochemical, M. tuberculosis
Sequence of ClpC1/P1/P2 complex (P9WPC9 whole entry, one chain of several): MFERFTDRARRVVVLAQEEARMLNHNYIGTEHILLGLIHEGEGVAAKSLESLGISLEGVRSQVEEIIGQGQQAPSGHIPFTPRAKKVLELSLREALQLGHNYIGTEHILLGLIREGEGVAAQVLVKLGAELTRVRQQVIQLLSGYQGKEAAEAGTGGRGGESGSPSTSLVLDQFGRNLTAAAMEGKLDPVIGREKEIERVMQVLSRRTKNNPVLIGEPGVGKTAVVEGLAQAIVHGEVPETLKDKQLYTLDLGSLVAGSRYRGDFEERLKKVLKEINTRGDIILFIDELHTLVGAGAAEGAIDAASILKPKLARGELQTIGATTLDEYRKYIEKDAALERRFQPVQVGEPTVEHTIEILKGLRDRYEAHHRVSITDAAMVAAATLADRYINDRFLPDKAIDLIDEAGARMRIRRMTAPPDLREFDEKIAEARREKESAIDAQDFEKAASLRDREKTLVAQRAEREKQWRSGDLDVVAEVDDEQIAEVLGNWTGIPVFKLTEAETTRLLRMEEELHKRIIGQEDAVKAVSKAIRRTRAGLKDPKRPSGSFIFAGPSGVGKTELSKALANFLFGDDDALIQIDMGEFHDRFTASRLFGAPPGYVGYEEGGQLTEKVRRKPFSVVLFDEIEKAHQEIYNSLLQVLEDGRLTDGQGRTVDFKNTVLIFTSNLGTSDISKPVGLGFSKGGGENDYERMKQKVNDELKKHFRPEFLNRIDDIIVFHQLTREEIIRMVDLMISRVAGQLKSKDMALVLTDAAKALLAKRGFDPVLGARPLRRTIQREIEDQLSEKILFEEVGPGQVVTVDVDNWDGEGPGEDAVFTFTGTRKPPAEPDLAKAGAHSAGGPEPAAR

ClpC1 = ClpC1 (Mycobacterium tuberculosis, UniProt P9WPC9); type: biochemical, M. tuberculosis
Sequence of ClpC1 (P9WPC9 whole entry): as the sequence (P9WPC9 whole entry, one chain of several) above

[9] = ECU, micelle formulation; cited from earlier work
[10] = system: nonreplicating cultures of M. tuberculosis; test: microbe, parasite or virus in culture; type: cell-based, Mycobacterium tuberculosis; details: Mycobacterium tuberculosis
M. tuberculosis = test: microbe, parasite or virus in culture; type: cell-based, Mycobacterium tuberculosis; details: Mycobacterium tuberculosis, read-out: MBC (minimum bactericidal concentration)
[11] = system: MDA-MB-231 breast cancer cells; test: Cytotoxicity against cancer cell lines (CellTiter 96); type: cell-based; details: Homo sapiens; MDA-MB-231, paclitaxel column
Protocol: (§2) Human melanoma cancer cells (MDA-MB-435), human breast cancer cells (MDA-MB-231), and human ovarian cancer cells (OVCAR3) were purchased from the American Type Culture Collection (Manassas, VA). Each cell line was propagated at 37°C in 5% CO2 in RPMI 1640 medium supplemented with FBS (10%), penicillin (100 U/ml), and streptomycin (100 μg/ml). Cells in log phase were harvested by trypsinization, followed by two washing cycles to remove all traces of enzyme. A total of 5,000 cells were seeded per well of a 96-well clear, flat-bottom plate (Microtest 96; Falcon) and incubated overnight (37°C in 5% CO2). Samples dissolved in DMSO were then diluted and added to the respective wells. The cells were incubated in the presence of test substance for 72 h at 37°C and evaluated for viability with a commercial absorbance assay (CellTiter 96 AQueous One Solution cell proliferation assay; Promega Corp., Madison, WI) that measured viable cells. IC50 values are expressed in micromolar values relative to the solvent (DMSO) control.

[12] = system: MDA-MB-435 melanoma cells; test: as above; type: cell-based; details: Homo sapiens; MDA-MB-435, paclitaxel column
Protocol: as §2

[13] = system: OVCAR 3 ovarian cancer cells; test: as above; type: cell-based; details: Homo sapiens; OVCAR 3, paclitaxel column
Protocol: as §2

[14] = ATCC19977, M. abscessus, read-out: MIC

Compound: CO[C@H](c1ccccc1)[C@@H]1NC(=O)[C@H](C)NC(=O)[C@H](C[C@@H](C)CO)N(C)C(=O)[C@H]([C@H](O)c2cn(C(C)(C)[C@@H]3CO3)c3ccccc23)NC(=O)[C@H]([C@H](C)C=C(C)C)NC(=O)[C@H](CC(C)C)N(C)C(=O)[C@H](C(C)C)NC1=O (stereo in doubt) [CYMA, cyclomarin A]
- MIC (M. chelonae (ATCC 35752); M. chelonae, read-out: MIC): > 5 µM
- MIC (M. bovis (ATCC 35734)): < 0.02 µM
- MIC [1, 14]: > 5 µM
- MIC (M. marinum (ATCC 927); M. marinum, read-out: MIC): 0.58 µM (≈ 0.605 µg/mL)
- MIC (M. avium (ATCC 15769); M. avium, read-out: MIC): 4.85 µM (≈ 5.06 µg/mL)
- MIC ([2]; M. smegmatis, read-out: MIC): 1.6 µM (≈ 1.67 µg/mL)
- pIC50 (Vero cell (ATCC CRL-81)): < 4.30
- MIC [3]: > 10 µM
- MIC [4]: > 10 µM
- MIC [5]: > 10 µM
- MIC (M. kansasii (ATCC 12478); M. kansasii, read-out: MIC): 1.11 µM (≈ 1.16 µg/mL)
- MIC [6]: 0.012 to 0.079 µM (≈ 0.0125 to 0.0824 µg/mL)
- pIC50 [7]: 4.72
- MIC [8]: 0.094 µM (≈ 0.0981 µg/mL)

Compound: CC1(C)S[C@@H]2[C@H](NC(=O)[C@H](N)c3ccccc3)C(=O)N2[C@H]1C(=O)O [AMP, ampicillin]
- MIC [3]: 6.1 µM (≈ 2.13 µg/mL)
- MIC [5]: 16 µM (≈ 5.59 µg/mL)

Compound: COc1nc2ccc(Br)cc2cc1[C@@H](c1ccccc1)[C@@](O)(CCN(C)C)c1cccc2ccccc12 [BDQ, bedaquiline]
- MIC (M. chelonae (ATCC 35752); M. chelonae, read-out: MIC): 0.46 µM (≈ 0.256 µg/mL)
- MIC (M. bovis (ATCC 35734)): 0.1 µM (≈ 0.0556 µg/mL)
- MIC [1, 14]: 0.96 µM (≈ 0.533 µg/mL)
- MIC (M. marinum (ATCC 927); M. marinum, read-out: MIC): 0.29 µM (≈ 0.161 µg/mL)
- MIC (M. avium (ATCC 15769); M. avium, read-out: MIC): 0.049 µM (≈ 0.0272 µg/mL)
- pIC50 (Vero cell (ATCC CRL-81)): 4.57
- MIC (M. kansasii (ATCC 12478); M. kansasii, read-out: MIC): 0.029 µM (≈ 0.0161 µg/mL)
- MIC [6]: 0.017 to 0.11 µM (≈ 0.00944 to 0.0611 µg/mL)
- pIC50 [7]: 4.70
- MIC [8]: 0.13 µM (≈ 0.0722 µg/mL)

Compound: CCC(C)C(C(=O)NC1C(=O)N(C)C(C(C)O)C(=O)NC(C(C)C)C(=O)N(C)C(CC(C)C)C(=O)NC(C(C)C)C(=O)N(C)C(C(C)C)C(=O)N(C)C(Cc2c[nH]c3cccc(OC)c23)C(=O)NC(C(C)C)C(=O)NC(C(O)c2ccccc2)C(=O)NC(C(C)C)C(=O)OC1C)N(C)C(=O)C(NC(=O)C(C(C)C)N(C)C)C(C)C (centres unmarked) [ECU, ecumicin] (ξNMe2Val-V[NMeI]T[NMeT]V[NMeL]V[NMeV][NMeTrp(4-OMe)]V[X1]V; ester 3-C; configuration not given here)
- effect on proteolytic activity of ClpC1/P1/P2 (FITC-casein degradation) (ClpC1/P1/P2 complex): inhibits ClpC1 proteolysis
- MIC (M. chelonae (ATCC 35752); M. chelonae, read-out: MIC): 0.97 µM (≈ 1.55 µg/mL)
- MIC (M. bovis (ATCC 35734)): < 0.2 µM
- MIC [1, 14]: > 63 µM
- effect on ClpC1 ATPase activity (ClpC1): stimulates the ATPase activity
- MIC (M. marinum (ATCC 927); M. marinum, read-out: MIC): 0.95 µM (≈ 1.52 µg/mL)
- MIC (M. avium (ATCC 15769); M. avium, read-out: MIC): 0.35 µM (≈ 0.56 µg/mL)
- MIC ([2]; M. smegmatis, read-out: MIC): 1.7 µM (≈ 2.72 µg/mL)
- terminal half-life [9]: 3 h
- MIC [3]: > 32 µM
- MIC [4]: > 32 µM
- MIC [5]: > 32 µM
- MIC (M. kansasii (ATCC 12478); M. kansasii, read-out: MIC): 4 µM (≈ 6.4 µg/mL)
- MBC [10]: 1.5 µM (≈ 2.4 µg/mL)
- MBC (M. tuberculosis): 0.34 µM (≈ 0.544 µg/mL)
- MIC [6]: 0.13 to 0.38 µM (≈ 0.208 to 0.608 µg/mL)
- MIC [8]: 0.16 µM (≈ 0.256 µg/mL)

Compound: CNC(C)C1CCC(N)C(OC2C(N)CC(N)C(OC3OCC(C)(O)C(NC)C3O)C2O)O1 (centres unmarked) [GEN, gentamicin]
- MIC [3]: 0.33 µM (≈ 0.158 µg/mL)
- MIC [5]: 0.23 µM (≈ 0.11 µg/mL)

Compound: CO[C@H]1/C=C/O[C@@]2(C)Oc3c(C)c(O)c4c(O)c(c(/C=N/N5CCN(C)CC5)c(O)c4c3C2=O)NC(=O)/C(C)=C\C=C\[C@H](C)[C@H](O)[C@@H](C)[C@@H](O)[C@@H](C)[C@H](OC(C)=O)[C@@H]1C [RIF, rifampin]
- MIC (M. chelonae (ATCC 35752)): > 4 µM
- MIC (M. bovis (ATCC 35734)): < 0.02 µM
- MIC ([1]; ATCC19977): > 4 µM
- MIC (M. marinum (ATCC 927)): 0.05 µM (≈ 0.0411 µg/mL)
- MIC (M. avium (ATCC 15769)): 0.16 µM (≈ 0.132 µg/mL)
- MIC [2]: > 120 µM
- pIC50 (Vero cell (ATCC CRL-81)): 3.92
- MIC (M. kansasii (ATCC 12478)): 0.15 µM (≈ 0.123 µg/mL)
- MIC [6]: 0.01 to 0.027 µM (≈ 0.00823 to 0.0222 µg/mL)
- pIC50 [7]: 4.02
- MIC [8]: 0.04 µM (≈ 0.0329 µg/mL)

Compound: CC(=O)O[C@H]1C(=O)[C@@]2(C)[C@H]([C@H](OC(=O)c3ccccc3)[C@]3(O)C[C@H](OC(=O)[C@H](O)[C@@H](NC(=O)c4ccccc4)c4ccccc4)C(C)=C1C3(C)C)[C@]1(OC(C)=O)CO[C@@H]1C[C@@H]2O [paclitaxel]
- pIC50 [11]: 6.77
- pIC50 [12]: 10.00
- pIC50 [13]: 8.82
